What was measured:
human MER (528-end) = molecular target: T1, human MER (528-end) (Homo sapiens, UniProt Q12866); assay: HTRF kinase activity biochemical assay, MER; conditions: 10 μM ATP, 30 minutes pre-incubation; read-out: HTRF MERTK IC50
T1 construct: human MER (528-end); purchased Camnabio, Japan
T1 sequence (Q12866 528-999 limits assumed): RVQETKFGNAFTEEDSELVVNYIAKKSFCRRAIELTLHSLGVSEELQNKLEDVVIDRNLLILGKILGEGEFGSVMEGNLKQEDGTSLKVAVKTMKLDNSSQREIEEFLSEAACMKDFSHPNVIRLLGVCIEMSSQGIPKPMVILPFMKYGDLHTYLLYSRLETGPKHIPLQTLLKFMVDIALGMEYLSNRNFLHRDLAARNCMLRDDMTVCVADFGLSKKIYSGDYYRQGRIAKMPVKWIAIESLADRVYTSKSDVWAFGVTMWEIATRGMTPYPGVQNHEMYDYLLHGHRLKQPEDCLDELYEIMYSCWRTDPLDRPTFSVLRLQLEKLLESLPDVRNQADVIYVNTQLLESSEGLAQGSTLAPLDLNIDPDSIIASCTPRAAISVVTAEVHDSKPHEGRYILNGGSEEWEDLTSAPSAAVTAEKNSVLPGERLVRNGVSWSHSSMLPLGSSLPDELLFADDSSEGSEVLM

human TYRO3 (455-end) = molecular target: T2, human TYRO3 (455-end) (Homo sapiens, UniProt Q06418); assay: HTRF kinase activity biochemical assay, TYRO3; conditions: 10 μM ATP, 30 minutes pre-incubation; read-out: HTRF TYRO IC50
T2 construct: TYRO3 (455-end); purchased SignalChem, Canada
T2 sequence (Q06418 455-890 limits assumed): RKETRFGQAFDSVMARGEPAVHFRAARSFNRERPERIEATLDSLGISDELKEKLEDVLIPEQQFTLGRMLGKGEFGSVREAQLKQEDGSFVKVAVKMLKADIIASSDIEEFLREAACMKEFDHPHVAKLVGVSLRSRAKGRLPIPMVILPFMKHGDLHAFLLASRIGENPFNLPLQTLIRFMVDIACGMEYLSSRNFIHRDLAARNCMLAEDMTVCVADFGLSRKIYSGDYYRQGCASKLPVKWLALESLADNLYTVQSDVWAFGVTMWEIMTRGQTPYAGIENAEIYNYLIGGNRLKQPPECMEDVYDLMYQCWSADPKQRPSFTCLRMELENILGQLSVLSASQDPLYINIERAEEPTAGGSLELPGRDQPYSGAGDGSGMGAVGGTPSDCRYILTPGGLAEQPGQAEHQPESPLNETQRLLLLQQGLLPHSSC

human AXL (473-end) = molecular target: T3, human AXL (473-end) (Homo sapiens, UniProt P30530); assay: HTRF kinase activity biochemical assay, AXL; conditions: 10 μM ATP, 30 minutes pre-incubation
T3 construct: human AXL (473-end); purchased SignalChem, Canada
T3 sequence (P30530 473-894 limits assumed): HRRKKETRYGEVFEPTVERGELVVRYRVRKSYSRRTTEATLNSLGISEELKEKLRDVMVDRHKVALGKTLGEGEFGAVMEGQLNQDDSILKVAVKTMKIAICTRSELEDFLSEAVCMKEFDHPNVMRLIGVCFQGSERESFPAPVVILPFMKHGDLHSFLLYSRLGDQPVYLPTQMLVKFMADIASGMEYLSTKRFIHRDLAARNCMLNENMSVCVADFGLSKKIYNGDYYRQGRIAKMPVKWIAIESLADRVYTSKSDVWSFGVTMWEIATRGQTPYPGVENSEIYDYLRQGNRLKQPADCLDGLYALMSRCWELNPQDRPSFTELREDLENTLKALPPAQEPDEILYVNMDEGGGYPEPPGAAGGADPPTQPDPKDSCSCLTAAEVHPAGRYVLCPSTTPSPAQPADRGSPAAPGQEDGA

Row | SMILES | IC50 (human MER (528-end)) [nM] | IC50 (human TYRO3 (455-end)) [nM] | IC50 (human AXL (473-end)) [nM]
1 | COc1nc(-c2cnc(N)c(C(=O)N[C@H]3CCC[C@@H]3OCc3ccc(-c4ccc5c(c4)CC[C@@H]5N4CCN(CCO)CC4)cc3)c2)cs1 [Example 179, 2-amino-N-{(1S,2S)-2-[(4-{(1S)-1-[4-(2-hydroxyethyl)piperazin-1-yl]-2,3-dihydro-1H-inden-5-yl}phenyl)methoxy]cyclopentyl}-5-(2-methoxy-1,3-thiazol-4-yl)pyridine-3-carboxamide] | < 10 | 10 to 100 | < 10
2 | Cn1cc(-c2cnc(N)c(C(=O)N[C@H]3CCC[C@@H]3OCc3ccc(-c4ccc5c(c4)CC(F)(F)[C@@H]5N4CCN(CCO)CC4)cc3)c2)cn1 [Example 65, 2-amino-N-{(1S,2S)-2-[(4-{(1R)-2,2-difluoro-1-[4-(2-hydroxyethyl)piperazin-1-yl]-2,3-dihydro-1H-inden-5-yl}phenyl)methoxy]cyclopentyl}-5-(1-methyl-1H-pyrazol-4-yl)pyridine-3-carboxamide] | < 10 | 100 to 1000 | < 10
3 | Cn1cc(-c2cnc(N)c(C(=O)N[C@H]3CCC[C@@H]3OCc3ccc(-c4ccc5c(ccn5C(F)F)c4)cc3)c2)cn1 [Example 64, 2-amino-N-[(1S,2S)-2-({4-[1-(difluoromethyl)-1H-indol-5-yl]phenyl}methoxy)cyclopentyl]-5-(1-methyl-1H-pyrazol-4-yl)pyridine-3-carboxamide] | < 10 | > 1000 | 10 to 100
4 | CN(CCC(O)CO)C1CCc2cc(-c3ccc(CO[C@H]4CCC[C@@H]4NC(=O)c4cc(-c5cccnc5F)cnc4N)cc3)ccc21 (stereo partly drawn) [Example 127, 6-amino-N-{(1S,2S)-2-[(4-{1-[(3,4-dihydroxybutyl)(methyl)amino]-2,3-dihydro-1H-inden-5-yl}phenyl)methoxy]cyclopentyl}-2′-fluoro[3,3′-bipyridine]-5-carboxamide] | 10 to 100 | > 1000 | 100 to 1000
5 | CN1CCN([C@H]2CCc3cc(-c4ccc(CO[C@H]5CCC[C@@H]5NC(=O)c5cc(-c6cccnc6F)cnc5N)cc4)ccc32)CC1 [Example 116, 6-amino-2′-fluoro-N-[(1S,2S)-2-({4-[(1S)-1-(4-methylpiperazin-1-yl)-2,3-dihydro-1H-inden-5-yl]phenyl}methoxy)cyclopentyl][3,3′-bipyridine]-5-carboxamide] | < 10 | 100 to 1000 | < 10
6 | Cn1cc(-c2cnc(N)c(C(=O)N[C@H]3CCC[C@@H]3OCc3ccc(-c4ccc5c(c4)CC(F)(F)C5N4CCN(CC(O)CO)CC4)cc3)c2)cn1 (mixture of isomers) [Example 59, 2-amino-N-{(1S,2S)-2-[(4-{1-[4-(2,3-dihydroxypropyl)piperazin-1-yl]-2,2-difluoro-2,3-dihydro-1H-inden-5-yl}phenyl)methoxy]cyclopentyl}-5-(1-methyl-1H-pyrazol-4-yl)pyridine-3-carboxamide] | < 10 | 100 to 1000 | < 10
7 | Cn1cc(-c2cnc(N)c(C(=O)N[C@H]3CCC[C@@H]3OCc3ccc(-c4ccc5c(c4)C4(CC4)CN(C4CCN(CCO)CC4)C5)cc3)c2)cn1 [Example 72, 2-amino-N-{(1S,2S)-2-[(4-{2′-[1-(2-hydroxyethyl)piperidin-4-yl]-2′,3′-dihydro-1′H-spiro[cyclopropane-1,4′-isoquinolin]-6′-yl}phenyl)methoxy]cyclopentyl}-5-(1-methyl-1H-pyrazol-4-yl)pyridine-3-carboxamide] | 100 to 1000 | > 1000 | > 1000
8 | Cn1cc(-c2cnc(N)c(C(=O)N[C@H]3CCC[C@@H]3OCc3ccc(-c4ccc5c(ccn5CCC(=O)O)c4)cc3)c2)cn1 [Example 58, 3-{5-[4-({[(1S,2S)-2-{[2-amino-5-(1-methyl-1H-pyrazol-4-yl)pyridine-3-carbonyl]amino}cyclopentyl]oxy}methyl)phenyl]-1H-indol-1-yl}propanoic acid] | 10 to 100 | > 1000 | 100 to 1000
9 | CC1(C)CN(C2CCN(CCO)CC2)c2ccc(-c3ccc(CO[C@H]4CCC[C@@H]4NC(=O)c4nc(-c5ccc(F)nc5)cnc4N)cc3)cc21 [Example 41, 3-amino-6-(6-fluoropyridin-3-yl)-N-{(1S,2S)-2-[(4-{1-[1-(2-hydroxyethyl)piperidin-4-yl]-3,3-dimethyl-2,3-dihydro-1H-indol-5-yl}phenyl)methoxy]cyclopentyl}pyrazine-2-carboxamide] | < 10 | 100 to 1000 | 10 to 100
10 | CN(C)CC(=O)NC1Cc2ccc(-c3ccc(CO[C@H]4CCC[C@@H]4NC(=O)c4cc(-c5cnn(C)c5)cnc4N)cc3)cc2C1 (stereo partly drawn) [Example 9, 2-amino-N-{(1S,2S)-2-[(4-{2-[2-(dimethylamino)acetamido]-2,3-dihydro-1H-inden-5-yl}phenyl)methoxy]cyclopentyl}-5-(1-methyl-1H-pyrazol-4-yl)pyridine-3-carboxamide] | < 10 | > 1000 | 10 to 100
11 | Nc1ncc(-c2ccc(F)nc2)cc1C(=O)N[C@H]1COC[C@@H]1OCc1ccc(-c2ccc3c(c2)CCC3N2CCN(CCO)CC2)cc1 (stereo partly drawn) [Example 20, 6-amino-6′-fluoro-N-{(3S,4R)-4-[(4-{1-[4-(2-hydroxyethyl)piperazin-1-yl]-2,3-dihydro-1H-inden-5-yl}phenyl)methoxy]oxolan-3-yl}[3,3′-bipyridine]-5-carboxamide] | < 10 | > 1000 | 10 to 100
12 | Cn1cc(-c2cnc(N)c(C(=O)N[C@H]3COC[C@@H]3OCc3ccc(-c4ccc5c(c4)CCC5N4CCN(CCO)CC4)cc3)c2)cn1 (stereo partly drawn) [Example 18, 2-amino-N-{(3S,4R)-4-[(4-{1-[4-(2-hydroxyethyl)piperazin-1-yl]-2,3-dihydro-1H-inden-5-yl}phenyl)methoxy]oxolan-3-yl}-5-(1-methyl-1H-pyrazol-4-yl)pyridine-3-carboxamide] | < 10 | 100 to 1000 | 10 to 100
13 | Cn1cc(-c2cnc(N)c(C(=O)N[C@H]3CCC[C@@H]3OCc3ccc(-c4ccc5c(c4)C(C)(C)C[C@H]5N4CCN(CCO)CC4)cc3)c2)cn1 [Example 96, 2-amino-N-{(1S,2S)-2-[(4-{(1R)-1-[4-(2-hydroxyethyl)piperazin-1-yl]-3,3-dimethyl-2,3-dihydro-1H-inden-5-yl}phenyl)methoxy]cyclopentyl}-5-(1-methyl-1H-pyrazol-4-yl)pyridine-3-carboxamide] | 10 to 100 | > 1000 | 10 to 100
14 | Cn1ccc(-c2cnc(N)c(C(=O)N[C@H]3CCC[C@@H]3OCc3ccc(-c4ccc5c(c4)C(C)(C)CN5C4CCN(CCO)CC4)cc3)c2)cc1=O [Example 30, 6-amino-N-{(1S,2S)-2-[(4-{1-[1-(2-hydroxyethyl)piperidin-4-yl]-3,3-dimethyl-2,3-dihydro-1H-indol-5-yl}phenyl)methoxy]cyclopentyl}-1′-methyl-2′-oxo-1′,2′-dihydro[3,4′-bipyridine]-5-carboxamide] | < 10 | 10 to 100 | < 10
15 | Cc1nc(-c2cnc(N)c(C(=O)N[C@H]3CCC[C@@H]3OCc3ccc(-c4ccc5c(c4)CC[C@@H]5N4CCN(CCO)CC4)cc3)c2)cs1 [Example 180, 2-amino-N-{(1S,2S)-2-[(4-{(1S)-1-[4-(2-hydroxyethyl)piperazin-1-yl]-2,3-dihydro-1H-inden-5-yl}phenyl)methoxy]cyclopentyl}-5-(2-methyl-1,3-thiazol-4-yl)pyridine-3-carboxamide] | < 10 | 10 to 100 | < 10

From patent US20260146035A1, “FUSED BICYCLIC COMPOUNDS AND THEIR USE AS MER AND AXL INHIBITORS” (DONG-A ST CO., LTD., priority 2022, published 2026)
